Experimental data taken from patent US12264156B2, “Compounds and pharmaceutical compositions thereof for the treatment of diseases” (GALAPAGOS NV, priority 2018, dated 2025).

Experiments:
SIK1 = molecular target: T1, SIK1 (Homo sapiens, UniProt P57059); assay: ADP-Glo kinase assay, SIK1; format: biochemical; details: ADP-Glo SIK kinase assay
T1 construct: purchased Carna Biosciences 02-131
Outline: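 ADP-Glo, RT throughout. Enz/substrate + ATP, 120 min; ADP-Glo reagent 40 min (ATP depletion); detection reagent 30 min; luminescence read. Neg ctrl 1% DMSO, pos ctrl 10 μM staurosporine, final concs.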

[1] = system: LPS triggered IL-10 secretion in monocytes; assay: Monocytes assay: LPS-triggered IL-10 (ELISA); format: cell-based, human; details: LPS 200 ng/mL, supernatant after 4 h, maximal fold change vs LPS only
Experimental: (§1) SIK inhibition inhibits TNFα and increases IL-10 release in LPS triggered monocyte-derived macrophages (MdM) and dendritic cells (MdDCs) (Clark et al. 2012; Sundberg et al. 2014; Ozanne et al. 2015). This assay evaluates illustrative compounds of the invention for their inhibition of LPS-induced TNFα and LPS triggered IL-10 secretion in monocytes.
(§2) PBMCs are isolated from human blood samples (buffycoats). The buffy coat is aseptically transferred into a 50 mL Falcon tube, and diluted 1/2 in PBS. Falcon tubes are filled with 20 mL Lymphoprep™, on top of which 25 mL of the buffy coat is carefully added, tubes are centrifuged for 35 min at 400 g in temperature controlled centrifuge, without brake, at 25° C. PBMCs are aspirated from the white interface layer between sample and Lymphoprep™. PBMCs are washed five times in PBS. Cells are resuspended in RPMI 1640 complete medium supplemented with 10% FBS, 1% P/S, and cell density is determined using a hematologic analyzer (Sysmex XS-500i).
(§3) PBMCs are centrifuged at 300×g for 10 min and resuspended at a density of 1.0*10^7 cells/80 μL Miltenyi buffer (PBS, pH 7.4, 1% FBS, 2 mM EDTA).
(§4) Starting from this point of the protocol all steps are performed on ice. 20 μL of CD14+ micro-beads are added per 1.0*10^7 cells, the tube is mixed and incubated for 15 min in the fridge at 4° C. Cell suspension volume is adjusted to total volume of 100 mL using Miltenyi buffer, mixed gently and subsequently centrifuged for 10 min at 300×g. Supernantant is discarded and cell pellet is resuspended in 12 mL of Miltenyi buffer.
(§5) Four LS columns are placed in the MACS Separator (magnet) from Miltenyi Biotec, and are prewet by rinsing with 3 mL of MACS buffer per column. Three mL of cell suspension is added onto the column (max 1*10^8 of labelled cells/column), and columns are subsequently washed 3 times with 3 mL of Miltenyi buffer.
(§6) The columns are removed from the magnets, and 5 mL of Miltenyi buffer are added to the column to flush out the CD14+ fraction by pushing the plunger into the column. The flushed fractions are collected in a fresh 50 mL Falcon and volume is adjusted to 30 mL using Miltenyi buffer, cells are centrifuged for 10 min at 300×g. The obtained cell pellet is resuspended in 10 mL RPMI w/o FBS, and cell density is determined using a hematologic analyser (Sysmex XS-500i). 100 000 cells are seeded in 80 μL per well of a 96-well plate in RPMI 1640 medium supplemented with 10% FBS, 1% P/S.
(§7) A compound dilution plate is made in 100% DMSO by 3-fold dilution of 10 mM stock solution. An intermediate dilution plate (10× final concentration) is made by diluting the compound dilution plate 50-fold in RPMI medium.
(§8) 10 μL of the 10× final concentration compound is added to the cells and incubated for 1 h at 37° C. before addition of trigger. No trigger conditions/trigger conditions are spiked with equal final DMSO concentrations of 0.2% DMSO. 10 μL of 10×LPS (final conc. 200 ng/mL) solution are added to all wells except for the ‘no trigger wells’ where 10 μL medium is added. Supernatant is collected after 4 h of LPS triggering.
A Lumitrac 600 Greiner 384-well plate is coated with 40 μL of capture antibody (final concentration of 1 μg/mL in 1×PBS) and stored overnight at 4° C. The next day the plate is washed three times with PBST (PBS+0.05% Tween20) and once with PBS followed by the addition of 100 μL of blocking buffer (1% BSA−5% Sucrose) and plates are sealed and incubated for at least 4 h at RT. After washing the plate once with PBST and once with PBS, 40 μL of standard or sample are added (IL-10 standard curve is prepared using a 1/2 serial dilution starting from […]; dilutions are made in dilution buffer (PBS+1% BSA)). Plates are washed twice with PBST, and once with PBS, after which 35 μL of the detection antibody is added (final concentration 0.143 μg/mL diluted in dilution buffer) and plates are incubated for at least 2 h at RT. […]

[2] = system: LPS-induced TNFα in monocytes; assay: Monocytes assay: LPS-triggered TNFα (ELISA); format: cell-based, human; details: Homo sapiens, Monocyte, LPS 200 ng/mL, supernatant after 4 h
Experimental: as §1, §2, §3, §4, §5, §6, §7, §8
A Lumitrac 600 Greiner 384-well plate is coated with 40 μL of capture antibody (BD Pharmingen, Cat #551220) reaching a final concentration of 1 μg/mL in 1×PBS and stored overnight at 4° C.
The plate is then washed once with PBST (PBS+0.05% Tween20) and once with PBS followed by the addition of 100 μL of blocking buffer (1% Bovine Serum Albumin (BSA)−5% Sucrose) and plates are sealed and incubated for at least 4 h at RT. After washing the plate once with PBST and once with PBS, […]. Plates are washed twice with PBST, and once with PBS, after which 35 μL of the detection antibody is added (final concentration 0.25 μg/mL diluted in dilution buffer) and plates are incubated for at least 2 h at RT. […]

SIK2 = molecular target: T2, SIK2 (Homo sapiens, UniProt Q9H0K1); assay: ADP-Glo kinase assay, SIK2; format: biochemical; details: ADP-Glo SIK kinase assay
T2 construct: purchased ThermoFisher Scientific PV4792
T2 sequence (Q9H0K1 whole entry): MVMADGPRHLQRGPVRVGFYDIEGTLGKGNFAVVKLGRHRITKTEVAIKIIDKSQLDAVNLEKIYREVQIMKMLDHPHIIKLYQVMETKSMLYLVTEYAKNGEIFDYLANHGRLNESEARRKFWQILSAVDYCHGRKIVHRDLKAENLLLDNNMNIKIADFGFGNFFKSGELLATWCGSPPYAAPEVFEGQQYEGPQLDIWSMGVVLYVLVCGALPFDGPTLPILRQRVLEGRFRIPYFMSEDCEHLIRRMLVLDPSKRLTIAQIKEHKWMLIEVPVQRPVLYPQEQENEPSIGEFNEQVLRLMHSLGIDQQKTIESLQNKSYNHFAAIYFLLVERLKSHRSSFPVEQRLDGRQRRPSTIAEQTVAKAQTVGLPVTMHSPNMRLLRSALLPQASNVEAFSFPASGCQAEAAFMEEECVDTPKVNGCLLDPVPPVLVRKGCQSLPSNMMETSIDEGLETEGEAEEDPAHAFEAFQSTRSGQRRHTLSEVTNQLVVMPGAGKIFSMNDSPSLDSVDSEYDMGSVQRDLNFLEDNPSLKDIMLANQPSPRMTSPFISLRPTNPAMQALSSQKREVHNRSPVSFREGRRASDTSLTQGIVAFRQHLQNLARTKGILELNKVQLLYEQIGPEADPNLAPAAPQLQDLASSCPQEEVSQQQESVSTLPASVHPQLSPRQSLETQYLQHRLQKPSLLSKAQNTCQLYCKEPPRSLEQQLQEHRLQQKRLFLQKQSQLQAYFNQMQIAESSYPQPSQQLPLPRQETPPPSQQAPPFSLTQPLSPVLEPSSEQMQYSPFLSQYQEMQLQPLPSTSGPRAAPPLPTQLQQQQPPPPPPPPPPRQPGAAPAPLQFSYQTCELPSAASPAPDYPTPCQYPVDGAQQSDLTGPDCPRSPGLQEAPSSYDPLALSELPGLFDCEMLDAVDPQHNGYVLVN
Outline: (§9)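 Wells with 1% DMSO or 10 μM staurosporine (final) define the control window. The kinase reaction with substrate and ATP runs 120 min at RT, followed by ADP-Glo detection: ATP depletion (40 min) and ADP-derived luminescence (30 min).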

SIK3 = molecular target: T3, SIK3 (Homo sapiens, UniProt Q9Y2K2); assay: ADP-Glo kinase assay, SIK3; format: biochemical; details: ADP-Glo SIK kinase assay
T3 construct: purchased SignalChem S12-11G-100
T3 sequence (Q9Y2K2 whole entry): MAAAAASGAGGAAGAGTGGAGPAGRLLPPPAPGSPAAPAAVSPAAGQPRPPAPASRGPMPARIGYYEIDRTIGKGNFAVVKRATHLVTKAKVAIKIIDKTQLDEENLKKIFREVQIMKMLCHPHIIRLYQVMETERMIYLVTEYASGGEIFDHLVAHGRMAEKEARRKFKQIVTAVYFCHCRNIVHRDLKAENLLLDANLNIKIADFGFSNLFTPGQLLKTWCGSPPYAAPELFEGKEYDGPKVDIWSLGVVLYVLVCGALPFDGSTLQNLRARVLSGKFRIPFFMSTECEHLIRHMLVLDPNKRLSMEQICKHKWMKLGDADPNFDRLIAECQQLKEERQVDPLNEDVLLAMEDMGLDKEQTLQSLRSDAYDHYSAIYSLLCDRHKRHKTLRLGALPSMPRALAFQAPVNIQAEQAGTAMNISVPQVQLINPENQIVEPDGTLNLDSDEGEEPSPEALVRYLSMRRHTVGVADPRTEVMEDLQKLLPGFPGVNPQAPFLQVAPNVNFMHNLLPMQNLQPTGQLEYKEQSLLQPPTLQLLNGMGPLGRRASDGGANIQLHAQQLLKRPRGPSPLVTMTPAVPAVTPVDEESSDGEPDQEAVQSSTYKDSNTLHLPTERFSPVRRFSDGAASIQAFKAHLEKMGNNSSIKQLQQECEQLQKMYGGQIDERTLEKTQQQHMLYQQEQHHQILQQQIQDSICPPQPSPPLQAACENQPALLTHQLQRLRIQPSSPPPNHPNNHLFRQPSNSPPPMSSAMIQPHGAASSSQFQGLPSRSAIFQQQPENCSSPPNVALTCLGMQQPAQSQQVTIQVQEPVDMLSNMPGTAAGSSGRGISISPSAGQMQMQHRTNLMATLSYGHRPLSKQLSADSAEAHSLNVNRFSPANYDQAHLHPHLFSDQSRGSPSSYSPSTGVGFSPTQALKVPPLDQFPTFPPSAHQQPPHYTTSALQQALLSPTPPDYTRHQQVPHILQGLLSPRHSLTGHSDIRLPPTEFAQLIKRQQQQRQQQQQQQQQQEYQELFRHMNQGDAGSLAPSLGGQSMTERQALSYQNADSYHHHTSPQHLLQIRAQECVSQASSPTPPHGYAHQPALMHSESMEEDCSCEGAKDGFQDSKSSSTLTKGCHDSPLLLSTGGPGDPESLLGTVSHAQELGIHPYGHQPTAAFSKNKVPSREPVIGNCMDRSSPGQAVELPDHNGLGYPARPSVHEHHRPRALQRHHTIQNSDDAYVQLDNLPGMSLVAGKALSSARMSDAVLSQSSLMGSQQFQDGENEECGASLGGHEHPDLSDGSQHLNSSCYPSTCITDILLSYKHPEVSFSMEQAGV
Outline: as §9

T1 sequence (P57059 whole entry): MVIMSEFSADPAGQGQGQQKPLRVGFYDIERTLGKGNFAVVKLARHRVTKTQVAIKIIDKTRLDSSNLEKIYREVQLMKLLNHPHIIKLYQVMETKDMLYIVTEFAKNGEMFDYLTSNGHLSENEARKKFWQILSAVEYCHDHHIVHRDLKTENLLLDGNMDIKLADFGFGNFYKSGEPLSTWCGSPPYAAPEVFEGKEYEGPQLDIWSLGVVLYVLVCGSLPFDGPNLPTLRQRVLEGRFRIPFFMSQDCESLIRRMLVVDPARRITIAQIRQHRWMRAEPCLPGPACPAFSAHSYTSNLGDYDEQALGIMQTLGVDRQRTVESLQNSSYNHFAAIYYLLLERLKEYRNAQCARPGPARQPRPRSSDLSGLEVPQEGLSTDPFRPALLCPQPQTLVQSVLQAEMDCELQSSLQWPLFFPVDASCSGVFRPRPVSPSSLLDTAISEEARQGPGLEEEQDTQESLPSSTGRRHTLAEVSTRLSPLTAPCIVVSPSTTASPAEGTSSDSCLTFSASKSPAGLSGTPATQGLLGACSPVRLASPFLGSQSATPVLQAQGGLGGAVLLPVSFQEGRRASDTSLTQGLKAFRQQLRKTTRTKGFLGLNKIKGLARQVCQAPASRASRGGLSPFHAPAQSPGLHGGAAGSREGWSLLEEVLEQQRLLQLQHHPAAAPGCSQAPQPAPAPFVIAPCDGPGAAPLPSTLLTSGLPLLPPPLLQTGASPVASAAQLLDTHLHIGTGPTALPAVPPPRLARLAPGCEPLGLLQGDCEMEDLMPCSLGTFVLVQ

| IC50 (SIK1) [nM] | EC50 ([2]; 4 h) [nM] | IC50 (SIK2) [nM] | IC50 (SIK3) [nM] | SMILES | IL-10 FCmax median [1] | EC50 [2] [nM] |
| --- | --- | --- | --- | --- | --- | --- |
| 10 to 100 | 0.1 to 100 | 0.01 to 10 | 0.01 to 10 | COc1cc(-c2cnc3cc(OCC4CCN(C5COC5)C4)ccn23)cc(OC(F)F)c1C(=O)NC1CC1 (centres unmarked) [Cpd 288, N-cyclopropyl-2-(difluoromethoxy)-6-methoxy-4-[7-[[1-(oxetan-3-yl)pyrrolidin-3-yl]methoxy]imidazo[1,2-a]pyridin-3-yl]benzamide] | +++ (>4.5) | – |
| 10 to 100 | 100 to 1000 | 0.01 to 10 | 0.01 to 10 | COc1cc(-c2cnc3cc(OC[C@H]4CCCNC4)ccn23)cc(OC(F)F)c1C(=O)NC1CC1 [Cpd 315, N-cyclopropyl-2-(difluoromethoxy)-6-methoxy-4-[7-[[(3S)-3-piperidyl]methoxy]imidazo[1,2-a]pyridin-3-yl]benzamide] | ++ (>1.5-4.5) | – |
| 10 to 100 | 0.1 to 100 | 0.01 to 10 | 0.01 to 10 | COc1cc(-c2cnc3cc(OCC4CN(CCC#N)C4)ccn23)cc(OC(F)F)c1C(=O)NC1CC1 [Cpd 323, 4-[7-[[1-(2-cyanoethyl)azetidin-3-yl]methoxy]imidazo[1,2-a]pyridin-3-yl]-N-cyclopropyl-2-(difluoromethoxy)-6-methoxy-benzamide] | +++ (>4.5) | – |
| 10 to 100 | 100 to 1000 | 0.01 to 10 | 0.01 to 10 | COc1cc(-c2cnc3cc(OC[C@@H]4CCNC4)ccn23)cc(OC(F)F)c1C(=O)NC1CC1 [Cpd 334, N-cyclopropyl-2-(difluoromethoxy)-6-methoxy-4-[7-[[(3R)-pyrrolidin-3-yl]methoxy]imidazo[1,2-a]pyridin-3-yl]benzamide] | ++ (>1.5-4.5) | – |
| 10 to 100 | 100 to 1000 | 0.01 to 10 | 0.01 to 10 | COc1cc(-c2cnc3cc(OC[C@@H]4CCCNC4)ccn23)cc(OC(F)F)c1C(=O)NC1CC1 [Cpd 335, N-cyclopropyl-2-(difluoromethoxy)-6-methoxy-4-[7-[[(3R)-3-piperidyl]methoxy]imidazo[1,2-a]pyridin-3-yl]benzamide] | +++ (>4.5) | – |
| 10 to 100 | 100 to 1000 | 0.01 to 10 | 0.01 to 10 | COc1cc(-c2cnc3cc(OC[C@@H]4CCN(CCO)C4)ccn23)cc(OC(F)F)c1C(=O)NC1CC1 [Cpd 349, N-cyclopropyl-2-(difluoromethoxy)-4-[7-[[(3R)-1-(2-hydroxyethyl)pyrrolidin-3-yl]methoxy]imidazo[1,2-a]pyridin-3-yl]-6-methoxy-benzamide] | +++ (>4.5) | – |
| 10 to 100 | 0.1 to 100 | 0.01 to 10 | 0.01 to 10 | COc1cc(-c2cnc3cc(OCCCN4CCC(F)(C(N)=O)CC4)ccn23)cc(OC(F)F)c1C(=O)NC1CC1 [Cpd 361, l-[3-[3-[4-(cyclopropylcarbamoyl)-3-(difluoromethoxy)-5-methoxy-phenyl]imidazo[1,2-a]pyridin-7-yl]oxypropyl]-4-fluoro-piperidine-4-carboxamide] | ++ (>1.5-4.5) | – |
| 10 to 100 | 1000 to 5000 | 0.01 to 10 | 0.01 to 10 | COc1cc(-c2cnc3cc(OCCCN4CCC(F)(C(=O)O)CC4)ccn23)cc(OC(F)F)c1C(=O)NC1CC1 [Cpd 366, 1-[3-[3-[4-(cyclopropylcarbamoyl)-3-(difluoromethoxy)-5-methoxy-phenyl]imidazo[1,2-a]pyridin-7-yl]oxypropyl]-4-fluoro-piperidine-4-carboxylic acid] | ++ (>1.5-4.5) | – |
| 10 to 100 | 100 to 1000 | 0.01 to 10 | 0.01 to 10 | COc1cc(-c2cnc3cc(OC[C@@H]4CCCN(CCO)C4)ccn23)cc(OC(F)F)c1C(=O)NC1CC1 [Cpd 370, N-cyclopropyl-2-(difluoromethoxy)-4-[7-[[(3R)-1-(2-hydroxyethyl)-3-piperidyl]methoxy]imidazo [1,2-a]pyridin-3-yl]-6-methoxy-benzamide] | ++ (>1.5-4.5) | – |
| 0.01 to 10 | 100 to 1000 | 0.01 to 10 | 0.01 to 10 | COc1cc(-c2cnc3cc(OCCNC(=O)C(F)F)ccn23)cc(OC(F)F)c1C(=O)NC1CC1 [Cpd 371, N-cyclopropyl-4-[7-[2-[(2,2-difluoroacetyl)amino]ethoxy]imidazo[1,2-a]pyridin-3-yl]-2-(difluoromethoxy)-6-methoxy-benzamide] | ++ (>1.5-4.5) | – |
| 10 to 100 | 0.1 to 100 | 0.01 to 10 | 0.01 to 10 | COc1cc(-c2cnc3cc(OCCCN4CCC(O)CC4)ccn23)cc(OC(F)F)c1C(=O)NC1CC1 [compound 277, N-cyclopropyl-2-(difluoromethoxy)-4-[7-[3-(4-hydroxy-1-piperidyl)propoxy]imidazo [1,2-a]pyridin-3-yl]-6-methoxy-benzamide] | +++ (>4.5) | – |

| SMILES | IC50 (SIK1) [nM] | EC50 ([2]; 4 h) [nM] | IC50 (SIK2) [nM] | IC50 (SIK3) [nM] | IL-10 FCmax median [1] | EC50 [2] [nM] |
| --- | --- | --- | --- | --- | --- | --- |
| COc1cc(-c2cnc3cc(OCC4CN(CC#N)C4)ccn23)cc(OC(F)F)c1C(=O)NC1CC1 [Cpd 322, 4-[7-[[1-(cyanomethyl)azetidin-3-yl]methoxy]imidazo[1,2-a]pyridin-3-yl]-N-cyclopropyl-2-(difluoromethoxy)-6-methoxy-benzamide] | 10 to 100 | – | 0.01 to 10 | 0.01 to 10 | ++ (>1.5-4.5) | 0.1 to 100 |
| CCOC(=O)CN1[C@@H]2CC[C@H]1CC(Oc1ccn3c(-c4cc(OC)c(C(=O)NC5CC5)c(OC(F)F)c4)cnc3c1)C2 (stereo partly drawn) [compound 272, ethyl 2-[(1R,5S)-3-[3-[4-(cyclopropylcarbamoyl)-3-(difluoromethoxy)-5-methoxy-phenyl]imidazo[1,2-a]pyridin-7-yl]oxy-8-azabicyclo[3.2.1]octan-8-yl]acetate] | 100 to 500 | – | 10 to 100 | 10 to 100 | +++ (>4.5) | 0.1 to 100 |
